Tested on: 857933-349-R-J2-PDC complex spheroids, viability
Test: Anticancer human tumor 857933-349-R-J2-PDC patient-derived colon adenocarcinoma cell line growth inhibition [GQUAD]
Conditions: for IC50: curve of first compound; for viability, T/C: stronger effect = lower value
How it was run: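 Tumor cells were grown as complex spheroids with HUVEC endothelial cells and mesenchymal stem cells as stroma. G-quadruplex stabilizers were combined with targeted agents over half-log dilutions from near the clinical Cmax, or from 10 microM.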
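Further: spheroids exposed to compounds for one week before readout.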
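Wherever viability, T/C is given: percent viability relative to vehicle DMSO wells taken as 100%.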

Which results are given for CC(C)n1c(=O)n(C)c2cnc3cc(F)c(-c4ccc(OCCCN5CCCCC5)nc4)cc3c21 + Cc1[nH]c2ccc(F)cc2c1-c1nc2c3cccnc3c3ncccc3c2[nH]1?
IC50 (second compound 0.0316 µM): > 10 µM; IC50 (second compound 0.1 µM): > 10 µM; IC50 (second compound 0.316 µM): > 10 µM; IC50 (second compound 1 µM): > 10 µM; IC50 (second compound 3.16 µM): > 10 µM; IC50 (second compound 10 µM): > 10 µM; viability, T/C (second compound 0.0316 µM, first compound 0.0316 µM): 100%; viability, T/C (second compound 0.0316 µM, first compound 0.1 µM): 102%; viability, T/C (second compound 0.0316 µM, first compound 0.316 µM): 107%; viability, T/C (second compound 0.0316 µM, first compound 1 µM): 102%; viability, T/C (second compound 0.0316 µM, first compound 3.16 µM): 107%; viability, T/C (second compound 0.0316 µM, first compound 10 µM): 84%; viability, T/C (second compound 0.1 µM, first compound 0.0316 µM): 94.8%; viability, T/C (second compound 0.1 µM, first compound 0.1 µM): 115%; viability, T/C (second compound 0.1 µM, first compound 0.316 µM): 98.5%; viability, T/C (second compound 0.1 µM, first compound 1 µM): 95.4%; viability, T/C (second compound 0.1 µM, first compound 3.16 µM): 105%; viability, T/C (second compound 0.1 µM, first compound 10 µM): 79.9%; viability, T/C (second compound 0.316 µM, first compound 0.0316 µM): 102%; viability, T/C (second compound 0.316 µM, first compound 0.1 µM): 101%; viability, T/C (second compound 0.316 µM, first compound 0.316 µM): 102%; viability, T/C (second compound 0.316 µM, first compound 1 µM): 107%; viability, T/C (second compound 0.316 µM, first compound 3.16 µM): 110%; viability, T/C (second compound 0.316 µM, first compound 10 µM): 83.5%; viability, T/C (second compound 1 µM, first compound 0.0316 µM): 98.4%; viability, T/C (second compound 1 µM, first compound 0.1 µM): 106%; viability, T/C (second compound 1 µM, first compound 0.316 µM): 101%; viability, T/C (second compound 1 µM, first compound 1 µM): 107%; viability, T/C (second compound 1 µM, first compound 3.16 µM): 128%; viability, T/C (second compound 1 µM, first compound 10 µM): 79.3%; viability, T/C (second compound 3.16 µM, first compound 0.0316 µM): 105%; viability, T/C (second compound 3.16 µM, first compound 0.1 µM): 103%; viability, T/C (second compound 3.16 µM, first compound 0.316 µM): 115%; viability, T/C (second compound 3.16 µM, first compound 1 µM): 98.6%; viability, T/C (second compound 3.16 µM, first compound 3.16 µM): 111%; viability, T/C (second compound 3.16 µM, first compound 10 µM): 83.8%; viability, T/C (second compound 10 µM, first compound 0.0316 µM): 102%; viability, T/C (second compound 10 µM, first compound 0.1 µM): 103%; viability, T/C (second compound 10 µM, first compound 0.316 µM): 108%; viability, T/C (second compound 10 µM, first compound 1 µM): 103%; viability, T/C (second compound 10 µM, first compound 3.16 µM): 103%; viability, T/C (second compound 10 µM, first compound 10 µM): 88.9%
